# From patent US20090170762A1, “Treatment of Diabetes Related Obesity” (UUTech Limited, priority 2005, published 2009)
# Entries after “also recorded” stand apart in the source; their conditions may differ. Ends that are not written are not given here.
# Tests used:
# DPP-IV = DPP-IV (Homo sapiens, UniProt P27487); experiment: Degradation of GIP and Glu3-substituted GIP analogs by DPP-IV (HPLC); assay type: in vitro ADME
# normal mice = conditions: once daily 11 days (Irwin 2004); cited from earlier work
# ob/ob mice [1] = experiment: Daily (Pro3)GIP for 60 days in young ob/ob mice; assay type: in vivo, mouse
# Description: Young obese diabetic (ob/ob) mice derived from the colony maintained at Aston University, UK (Bailey, C. J. et al., 1982, Int. J. Obes. 6:11-21) were used at 5-7 weeks of age. Normal lean control mice from the same colony were used in comparative experiments (See Example 6, below). Animals were age-matched, divided into groups and housed individually in an air-conditioned room at 22±2° C. with a 12 hours light:12 hours dark cycle (08:00-20:00 hours). Drinking water and a standard rodent maintenance diet (Trouw Nutrition, Cheshire, UK) were freely available. In a separate experiment, Swiss Tylers Original (TO) mice purchased from Harlan Ltd. (Bicester, UK) were used at 5-7 weeks of age. Animals were housed as for ob/ob mice and given drinking water ad libitum. Normal TO mice were allowed free access to fed high fat diet (45% fat, 20% protein, 35% carbohydrate, 26.15 MJ/kg), high carbohydrate diet (10% fat, 20% protein, 70% carbohydrate, 18.80 MJ/kg) (Special Diets Service, Witham, Essex, UK), cafeteria diet (corresponding to approximately 33% fat, 19% protein, 48% carbohydrate, 16.39 MJ/kg) or normal rodent maintenance diet (10% fat, 30% protein, 60% carbohydrate; 14.2 MJ/kg, Trouw Nutrition, Cheshire, UK). The cafeteria diet comprised 6 daily rotations of 2 palatable food items per day (2 from: tuna, peanut butter, crisps, chocolate biscuits, madera cake, chocolate, luncheon meat, sausages, corned beef, cheese, marzipan). All animal experiments were carried out in accordance with the UK Animals (Scientific Procedures) Act 1986.
# Food intake and body weight were recorded daily while plasma glucose and insulin concentrations were monitored at intervals of 3-6 days. Whole blood for the measurement of glycated hemoglobin was taken on day 60. In addition, plasma samples for measurement of cholesterol, circulating triglycerides, HDL-cholesterol (HDL-C) and LDL-cholesterol (LDL-C) were taken on day 60. […] Mice fasted for 18 hours were used to examine the metabolic response to 15 minutes feeding on day 60. In a separate series, pancreatic tissues were excised at the end of the 60-day treatment period and processed for immunohistochemistry or measurement of insulin following extraction with 5 ml/g of ice-cold acid ethanol (750 ml ethanol, 235 ml water, 15 ml concentrated HCl). Blood samples taken from the cut tip of the tail vein of conscious mice at the times indicated in the Figures were immediately centrifuged using a Beckman microcentrifuge (Beckman instruments, UK) for 30 seconds at 13,000×g. The resulting plasma was then aliquoted into fresh Eppendorf tubes and stored at −20° C. prior to glucose and insulin determinations. Normal control mice from the same genetic background were used for comparative purposes. […] Body weights were recorded daily and blood for determination of glycated hemoglobin was collected at end of study period.
# Plasma glucose was assayed by an automated glucose oxidase procedure (Stevens, J. F., 1971, Clin. Chem. Acta 32:199-201) using a Beckman Glucose Analyzer II (Beckman Instruments, Galway, Ireland). Plasma and pancreatic insulin were assayed by a modified dextran-coated charcoal radioimmunoassay (Flatt, P. R., Bailey, C. J., 1981, Diabetologia 20:573-577). Plasma triglyceride and cholesterol levels were measured using a Hitachi Automatic Analyser 912 (Boehringer Mannheim, Germany). Glycated hemoglobin was determined using a commercially available kit purchased from Chirus Ltd. (Watford, UK).
# Results are expressed as mean±SEM. Data were compared using ANOVA, followed by a Student-Newman-Keuls post hoc test. Area under the curve (AUC) analyzes were calculated using the trapezoidal rule with baseline subtraction. P<0.05 was considered to be statistically significant.
# adult ob/ob mice = conditions: daily 11 days (Gault 2005); cited from earlier work
# ob/ob mice [2] = experiment: Acute antihyperglycaemic and insulin releasing activity with glucose and native GIP in ob/ob mice; assay type: in vivo, mouse; conditions: 25 nmol/kg i.p. with GIP and glucose 18 mmol/kg, vs native GIP
# Description: Animals. Obese diabetic (ob/ob) mice derived from the colony maintained at Aston University, UK (Bailey C. J. et al., 1982, Int. J. Obes. 6:11-21) were used at 14-18 weeks of age. Animals were age-matched, divided into groups and housed individually in an air-conditioned room at 22±2° C. with a 12 hour light: 12 hour dark cycle (08:00-20:00 hr). Drinking water and a standard rodent maintenance diet (Trouw Nutrition, Cheshire, UK) were freely available. All animal experiments were carried out in accordance with the UK Animals (Scientific Procedures) Act 1986.
# Biochemical analysis. Plasma glucose was assayed by an automated glucose oxidase procedure ([…]) using a Beckman Glucose Analyzer II (Beckman Instruments, Galway, Ireland). Plasma insulin was assayed by radioimmunoassay.
# Methods. […] All test solutions were administered in a final volume of 5 ml/kg body weight. Blood samples were collected from the cut tip of the tail vein of conscious mice into chilled fluoride/heparin coated glucose microcentrifuge tubes (Sarstedt, Numbrecht, Germany) immediately prior to injection and at 15, 30 and 60 minutes post injection. Blood samples were immediately centrifuged using a Beckmnan microcentrifuge (Beckman Instruments, High Wycombe, Buckinghamshire, UK) for 30 seconds at 13,000×g. Plasma glucose was assayed using a Beckman Glucose Analyzer n (Beckman Instruments, High Wycombe, Buckinghamshire, UK) (Stevens, J. F., 1971, Clin. Chim. Acta 32:199-201) and plasma insulin was determined by RIA (Flatt, P. R. and Bailey, C. J., 1981, Diabetologia 5:573-577). All animal studies were carried out in accordance with the UK Animals (Scientific Procedures) Act 1986.
# DPP-IV, sequence (P27487 whole entry, species assumed): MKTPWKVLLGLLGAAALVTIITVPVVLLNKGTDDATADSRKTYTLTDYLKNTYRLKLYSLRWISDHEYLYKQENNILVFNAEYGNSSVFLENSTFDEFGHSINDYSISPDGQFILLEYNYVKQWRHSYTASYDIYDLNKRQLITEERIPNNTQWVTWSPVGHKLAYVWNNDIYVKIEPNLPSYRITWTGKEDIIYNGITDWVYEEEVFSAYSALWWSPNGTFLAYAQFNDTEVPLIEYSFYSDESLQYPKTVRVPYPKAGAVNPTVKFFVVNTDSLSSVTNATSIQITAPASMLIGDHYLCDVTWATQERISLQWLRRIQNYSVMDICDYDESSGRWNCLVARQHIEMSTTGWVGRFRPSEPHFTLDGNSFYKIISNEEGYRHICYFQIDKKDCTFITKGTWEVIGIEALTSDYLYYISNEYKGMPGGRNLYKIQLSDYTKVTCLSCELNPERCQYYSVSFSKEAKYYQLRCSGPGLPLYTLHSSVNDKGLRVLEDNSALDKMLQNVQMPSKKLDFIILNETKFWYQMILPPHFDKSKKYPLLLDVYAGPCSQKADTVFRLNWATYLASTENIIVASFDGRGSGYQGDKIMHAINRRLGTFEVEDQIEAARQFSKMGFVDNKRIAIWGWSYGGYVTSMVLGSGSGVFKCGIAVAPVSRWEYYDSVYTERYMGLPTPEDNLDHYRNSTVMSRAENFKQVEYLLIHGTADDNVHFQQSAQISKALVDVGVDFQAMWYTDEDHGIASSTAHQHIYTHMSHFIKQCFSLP
sequence,measurement,setting,value
YAPGTFISDYSIAMDKIHQQDFVNWLLAQKGKKNDWKHNITQ [(Pro^3)GIP],half-life at 2 μm,"DPP-IV; DPP-IV enzyme (5 mU) in buffer, pH 7.8, incubation with DPP-IV, unit not given (time points in hrs), read-out: Estimated Half-Life (converted)",> 8 h
same,Intact Peptide Remaining (%) 0 hrs.,"DPP-IV; incubation with DPP-IV (5 mU), 37°C, pH 7.8, 0 hrs",100%
same,"remaining at 2 h, 2 μm","DPP-IV; isolated DPP-IV enzyme (5 mU), incubation with DPP-IV (5 mU), 37°C, pH 7.8, 2 hrs, read-out: Intact Peptide Remaining (%) 2 hrs.",100%
same,"remaining at 4 h, 2 μm","DPP-IV; isolated DPP-IV enzyme (5 mU), incubation with DPP-IV (5 mU), 37°C, pH 7.8, 4 hrs, read-out: Intact Peptide Remaining (%) 4 hrs.",100%
same,"remaining at 8 h, 2 μm","DPP-IV; isolated DPP-IV enzyme (5 mU), incubation with DPP-IV (5 mU), 37°C, pH 7.8, 8 hrs, read-out: Intact Peptide Remaining (%) 8 hrs.",100%
same,resistance to DPP-IV degradation,"DPP-IV; words, up to 8 hours incubation",completely resistant
same,glucose tolerance and insulin sensitivity,normal mice,reversible impairment of glucose tolerance associated with decreased insulin sensitivity
same,body weight gain,"ob/ob mice [1]; 5-7 weeks old ob/ob mice, standard diet, 60 days",progressive decrease in body weight gain
same,plasma insulin levels after 15 minute feeding,"ob/ob mice [1]; 18 h fasted ob/ob mice, 60 days, vs saline",not significantly different
same,plasma glucose responses to 15 minute feeding,"ob/ob mice [1]; 18 h fasted ob/ob mice, 60 days, 15, 30, 60 and 105 min",significantly lowered
same,decrease in body weight,"ob/ob mice [1]; ob/ob mice, 25 nmol/kg/day i.p., 60 days, vs saline, did not reach significance",~17%
same,effect on food intake,"ob/ob mice [1]; ob/ob mice, 25 nmol/kg/day, 60 days, vs saline",no effect; also recorded: without changing food intake
same,cholesterol levels,"ob/ob mice [1]; ob/ob mice, 60 days, vs saline",unaltered
same,circulating triglyceride concentrations,"ob/ob mice [1]; ob/ob mice, 60 days, vs saline",significantly (P<0.05) reduced
same,enhanced insulin sensitivity,"ob/ob mice [1]; ob/ob mice, 60 days, vs saline",1.5 fold
same,lowering of overall plasma glucose response to feeding,"ob/ob mice [1]; ob/ob mice, 60 days, vs saline",1.7 fold
same,lowering of overall plasma glucose response to intraperitoneal glucose load,"ob/ob mice [1]; ob/ob mice, 60 days, vs saline",1.9 fold
same,pancreatic insulin content,"ob/ob mice [1]; ob/ob mice, 60 days, vs saline",significantly (P<0.01) decreased
same,pancreatic weight,"ob/ob mice [1]; ob/ob mice, 60 days, vs saline",no effect
same,reduced pancreatic insulin content,"ob/ob mice [1]; ob/ob mice, 60 days, vs saline",1.5 fold
same,levels of LDL-C,"ob/ob mice [1]; ob/ob mice, 60 days, vs saline, LDL-C calculated by Friedewald equation",significantly reduced
same,plasma glucose concentrations following intraperitoneal glucose,"ob/ob mice [1]; ob/ob mice, 60 days, 0, 15, 30 and 60 min after glucose 18 mmol/kg",significantly reduced
same,plasma insulin concentrations following intraperitoneal glucose,"ob/ob mice [1]; ob/ob mice, 60 days, 15 min after glucose 18 mmol/kg",significantly (P<0.05) reduced
same,hypoglycemic action of insulin (insulin sensitivity),"ob/ob mice [1]; ob/ob mice, 60 days, insulin 50 U/kg i.p.",significantly (P<0.05) augmented
same,overall glycaemic excursion and insulinotropic response to glucose together with native GIP,"ob/ob mice [1]; ob/ob mice, 60 days, native GIP 25 nmoles/kg",significant decrease
same,glycated hemoglobin,"ob/ob mice [1]; ob/ob mice, after 60 days treatment",4.1±0.1%
same,non-fasting plasma glucose,"ob/ob mice [1]; ob/ob mice, day 14 to day 60, vs saline",significantly reduced
same,non-fasting plasma insulin,"ob/ob mice [1]; ob/ob mice, day 44, vs saline",significantly lowered
same,features of type 2 diabetes,adult ob/ob mice,improved many of the characteristic features of type 2 diabetes
same,plasma glucose and insulin profiles when administered together with native GIP,ob/ob mice [2],significantly inhibited the action of GIP
